From US20240067665A1, “SMALL MOLECULES FOR BORON NEUTRON CAPTURE THERAPY” (Aviko Radiopharmaceuticals, LLC, priority 2022, published 2024)

How the values were obtained:
Conditions in all cases: 100 uM
SAS (head & neck cancer) = assay: Cell uptake assay, SAS cells; type: cell-based, human
Method: (§1) • 1.1.1 15 mL of cell culture medium was placed into a T225 flask. • 1.1.2 The flask was placed in a humidified 37° C., 5% CO2 incubator for 15 minutes to allow medium to equilibrate to the proper pH and temperature. • 1.1.3 The vial was removed from liquid nitrogen and thawed rapidly by placing at 37° C. in a water bath with gentle agitation for 1-2 minutes and then decontaminated by wiping with 70% ethanol before opening in a Class II biological safety cabinet. • 1.1.4 The vial contents were transferred dropwise into 10 mL of cell culture medium in a sterile 15 mL conical tube. • 1.1.5 The cells were centrifuged at 1,300 rpm for 5 minutes. • 1.1.6 The supernatant was aspirated and re-suspended the cells and transferred the cells into T225 flask containing cell culture medium.
(§2) • 1.2.1 Culture medium were renewed every 2-3 days. • 1.2.2 Keep the flask in a humidified 37° C., 5% CO2 incubator
(§3) • Cells were harvested and diluted in culture medium to the designated concentration. Then the cells were cultured in T25 flasks, one T25 flask for one sample. 2.2 Formulation of test compounds • 2.2.1 L-Boronophenylalanine (L-BPA, 4-boron-L-phenylalanine, Purity: 95%, Chemical formula: C9H12BNO4, MW: 209.01, CAS: 76410-58-7) and fructose were dissolved in PBS at a molar ratio of 1:5, and then a 1.27 M ratio of 1 N NaOH is added. The mixture was stirred until L-BPA is completely dissolved, and the pH value was titrated to 7.2-7.4 with 1 N HC1. • 2.2.2 For test compounds other than BPA, stock solutions were prepared of each compound in DMSO or fructose formulation at a concentration of 20 mM (such that final % DMSO in the cellular assay medium=0.5%) 2.3 Compound treatment • 2.3.1 The cells were seeded overnight (12-18 hours) to allow the cells to adhere well. • 2.3.2 The stock solution of each compound was added to each T25 flask such that the final concentration for each compound is 100 uM (0.1 mM). • 2.3.3 The flasks were placed in a 37° C., 5% CO2 incubator for 1 hour, 4 hours and 24 hours. • 2.3.4 After treatment for 1 hour, 4 hour, and 24 hours, the cells were collected by using 0.25% Trypsin with 0.53 mM EDTA. • 2.3.5 Centrifuged at 1,300 rpm for 5 min to collect cell pellets.

B16F10 = assay: Cell uptake assay, B16F10 cells; type: cell-based, mouse
Method: as §1, §2, §3

NIH-3T3 = assay: Cell uptake assay, NIH-3T3 cells; type: cell-based, mouse
Method: as §1, §2, §3

U87-MG (glioblastoma) = assay: Cell uptake assay, U87-MG cells; type: cell-based, human
Method: as §1, §2, §3

SMILES | Cell uptake, Mean, SAS (SAS (head & neck cancer); 1 hour) [ng/10^6 cell] | Cell uptake, Mean, SAS (SAS (head & neck cancer); 4 hours) [ng/10^6 cell] | Cell uptake, Mean, SAS (SAS (head & neck cancer); 24 hours) [ng/10^6 cell] | Cell uptake, Mean, B16F10 (B16F10; 1 hour) [ng/10^6 cell] | Cell uptake, Mean, B16F10 (B16F10; 4 hours) [ng/10^6 cell] | Cell uptake, Mean, NIH-3T3 (NIH-3T3; 1 hour) [ng/10^6 cell] | Cell uptake, Mean, NIH-3T3 (NIH-3T3; 4 hours) [ng/10^6 cell] | Cell uptake, Mean, U87-MG (U87-MG (glioblastoma); 1 hour) [ng/10^6 cell] | Cell uptake, Mean, U87-MG (U87-MG (glioblastoma); 4 hours) [ng/10^6 cell] | Cell uptake, Mean, U87-MG (U87-MG (glioblastoma); 24 hours) [ng/10^6 cell] | Cell uptake, Mean, B16F10 (B16F10; 24 hours) [ng/10^6 cell] | Cell uptake, Mean, NIH-3T3 (NIH-3T3; 24 hours) [ng/10^6 cell]
NC(Cc1ccc(CCB(O)O)cc1F)C(=O)O (single isomer, unassigned) [compound 8, (S*)-2-amino-3-(4-(2-boronoethyl)-2-fluorophenyl)propanoic acid] | 44.6 | 66.7 | 359 | 26.9 | 31.4 | 14.7 | 26.4 | 16.7 | 31.1 | 16.3 | – | –
NC(Cc1ccc(CCB(O)O)cc1F)C(=O)O (single isomer, unassigned) [compound 9, (R*)-2-amino-3-(4-(2-boronoethyl)-2-fluorophenyl)propanoic acid] | 129 | 103 | 211 | – | 66.7 | 34.4 | 43.0 | 90.1 | – | 74.6 | 119 | 37.2
N[C@@H](Cc1cccc(OCB(O)O)c1)C(=O)O [compound 1, (S)-2-amino-3-(3-(boronomethoxy)phenyl)propanoic acid] | – | 755 | 828 | 112 | 232 | 127 | 194 | 227 | 233 | 336 | 517 | 133
N[C@@H](Cc1ccc(OCB(O)O)cc1F)C(=O)O [compound 2, (S)-2-amino-3-(4-(boronomethoxy)-2-fluorophenyl)propanoic acid] | 1125 | 1590 | 1595 | 151 | 333 | – | – | 123 | – | 626 | 881 | 205
N[C@@H](Cc1ccc(OCCB(O)O)cc1)C(=O)O [compound 3, (2S)-2-amino-3-{4-[2-(dihydroxyboranyl)ethoxy]phenyl}propanoic acid] | 534 | 499 | – | 145 | 222 | 132 | 138 | 197 | 211 | 183 | 117 | –
NC(Cc1ccc(OCB(O)O)cc1)C(=O)O (stereo not shown) [compound 4, 2-amino-3-{4-[(dihydroxyboranyl)methoxy]phenyl}propanoic acid] | 445 | 495 | 997 | 46.1 | 95.6 | 27.1 | 58.6 | 42.8 | 113 | 191 | 101 | 66.6
N[C@@H](Cc1cccc(CCB(O)O)c1)C(=O)O [compound 5, (S)-2-amino-3-(3-(2-boronoethyl)phenyl)propanoic acid] | – | 225 | 214 | – | 157 | 171 | 77.2 | – | – | – | 262 | –
N[C@@H](Cc1ccc(OCCB(O)O)cc1F)C(=O)O [compound 6, (2S)-2-amino-3-{4-[2-(dihydroxyboranyl)ethoxy]-2-fluorophenyl}propanoic acid] | 152 | 106 | 46.0 | – | 92.3 | 53.4 | 23.2 | 160 | 137 | – | – | –
N[C@@H](Cc1ccc(OCB(O)O)c(F)c1)C(=O)O [compound 10, (2S)-2-amino-3-{4-[(dihydroxyboranyl)methoxy]-3-fluorophenyl}propanoic acid] | 1285 | 1850 | – | – | 442 | 81.9 | 204 | 295 | 673 | 681 | 814 | –
N[C@@H](Cc1ccc(F)c(OCB(O)O)c1)C(=O)O [compound 11, (2S)-2-amino-3-{3-[(dihydroxyboranyl)methoxy]-4-fluorophenyl}propanoic acid] | 529 | 454 | 999 | 50.6 | 121 | 32.4 | 92.8 | 113 | 322 | 309 | 202 | 122
N[C@@H](Cc1cc(F)cc(OCB(O)O)c1)C(=O)O [compound 13, (2S)-2-amino-3-[3-[(dihydroxyboranyl)methoxy]-5-fluorophenyl]propanoic acid] | 903 | 1012 | 1077 | 180 | 310 | 183 | 222 | 521 | 828 | 735 | 304 | 168
N[C@@H](Cc1cccc(C2(B(O)O)CC2)c1)C(=O)O [compound 14, (2S)-2-amino-3-{3-[1-(dihydroxyboranyl)cyclopropyl]phenyl}propanoic acid] | – | – | – | – | – | – | 444 | – | – | – | – | –
N[C@@H](Cc1ccc(C2(B(O)O)CC2)cc1)C(=O)O [compound 15, (2S)-2-amino-3-{4-[1-(dihydroxyboranyl)cyclopropyl]phenyl}propanoic acid] | 491 | 283 | 419 | 193 | – | 223 | 185 | 225 | 337 | 269 | 458 | 169
